Source: patent publication US10428017B2, “Modulators of the cystic fibrosis transmembrane conductance regulator protein and methods of use” (AbbVie S.à.r.l., priority 2017, dated 2019)
Read-outs that look alike come from different tables or passages of the source.

Biological target: T1, F508delCFTR (Homo sapiens, UniProt P13569, DEL508-508)
T1 construct: expressed in transfected cells; host or cells: CFBE4lo-F508delCFTR-HRP cells (human lung derived epithelial cell line, doxycycline-inducible)
Test: Cell Surface Expression-Horse Radish Peroxidase (CSE-HRP) Assay
Type: cell-based
Conditions: for EC50: CFBE4lo-F508delCFTR-HRP cells, 18-24 hours at 33° C.; for Emax / Maximum % activity (with co-corrector): maximum at any tested concentration (up to 20 μM), normalized to on-plate positive control (2 μM co-corrector); for Maximum % activity (with co-corrector): with co-corrector 2 μM
Procedure, shortened: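 Surface F508delCFTR measured via exofacial-loop HRP luminescence (luminol) in doxycycline-induced (0.5 μg/mL, 72 h) CFBE4lo− cells. Compounds, 20 μM top, 3-fold, 8 concentrations, ±2 μM co-corrector, incubated 18-24 h at 33° C; EC50 by variable-slope sigmoidal fit of % activity relative to positive control, three replicate plates.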

[1] = test compound without co-corrector, HRP luminescence readout, read-out: EC50 (without co-corrector)
[2] = test compound without co-corrector
[3] = with co-corrector 2 μM 3-[(2R,4R)-4-({[1-(2,2-difluoro-1,3-benzodioxol-5-yl)cyclopropyl]carbonyl}amino)-7-methoxy-3,4-dihydro-2H-chromen-2-yl]benzoic acid, read-out: EC50 (with co-corrector)

T1 sequence (P13569 with tags, fused parts or gaps DEL508-508): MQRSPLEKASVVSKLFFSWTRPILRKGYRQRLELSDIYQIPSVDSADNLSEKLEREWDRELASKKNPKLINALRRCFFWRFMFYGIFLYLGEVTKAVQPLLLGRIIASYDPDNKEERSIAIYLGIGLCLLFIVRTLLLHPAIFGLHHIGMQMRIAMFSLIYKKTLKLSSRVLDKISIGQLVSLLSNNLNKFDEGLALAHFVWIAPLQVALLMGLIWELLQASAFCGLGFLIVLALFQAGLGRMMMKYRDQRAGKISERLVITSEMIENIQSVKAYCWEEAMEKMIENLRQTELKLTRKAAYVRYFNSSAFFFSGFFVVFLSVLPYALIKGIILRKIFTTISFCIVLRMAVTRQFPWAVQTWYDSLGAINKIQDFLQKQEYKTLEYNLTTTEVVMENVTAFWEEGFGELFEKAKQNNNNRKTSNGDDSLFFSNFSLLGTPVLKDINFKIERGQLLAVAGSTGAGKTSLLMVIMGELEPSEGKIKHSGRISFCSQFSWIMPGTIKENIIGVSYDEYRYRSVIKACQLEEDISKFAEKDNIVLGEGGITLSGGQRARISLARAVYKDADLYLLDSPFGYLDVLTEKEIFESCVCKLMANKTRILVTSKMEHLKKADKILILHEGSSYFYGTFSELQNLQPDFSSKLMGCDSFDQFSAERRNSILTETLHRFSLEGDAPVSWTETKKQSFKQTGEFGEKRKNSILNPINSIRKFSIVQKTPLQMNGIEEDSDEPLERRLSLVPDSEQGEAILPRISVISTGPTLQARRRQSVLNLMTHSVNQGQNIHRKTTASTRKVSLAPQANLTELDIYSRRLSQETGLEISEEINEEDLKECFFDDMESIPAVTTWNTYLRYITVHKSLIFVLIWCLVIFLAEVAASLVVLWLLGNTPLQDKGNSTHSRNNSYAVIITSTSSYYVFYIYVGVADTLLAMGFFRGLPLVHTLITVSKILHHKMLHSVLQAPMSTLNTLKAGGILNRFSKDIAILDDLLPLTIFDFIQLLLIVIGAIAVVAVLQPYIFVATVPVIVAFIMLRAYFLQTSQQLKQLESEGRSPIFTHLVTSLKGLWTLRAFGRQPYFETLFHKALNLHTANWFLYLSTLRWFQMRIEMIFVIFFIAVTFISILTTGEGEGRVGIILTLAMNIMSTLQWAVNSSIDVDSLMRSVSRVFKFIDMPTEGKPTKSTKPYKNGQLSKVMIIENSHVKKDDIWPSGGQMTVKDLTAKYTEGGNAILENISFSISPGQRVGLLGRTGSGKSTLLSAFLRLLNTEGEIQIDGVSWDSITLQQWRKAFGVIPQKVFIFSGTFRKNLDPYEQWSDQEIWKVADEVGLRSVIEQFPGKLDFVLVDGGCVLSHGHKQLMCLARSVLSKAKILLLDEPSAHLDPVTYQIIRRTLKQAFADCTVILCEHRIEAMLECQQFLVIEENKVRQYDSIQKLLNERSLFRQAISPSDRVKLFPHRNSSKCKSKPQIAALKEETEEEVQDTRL

Compound | EC50 [1] [µM] | Emax [2] [%] | EC50 [3] [µM] | Maximum % activity (with co-corrector)
COc1ccc(C#N)c2c1C(C(=O)NS(=O)(=O)c1cccc3ccccc13)CC(C)(C)O2 (stereo not shown) [Example 50, 8-cyano-5-methoxy-2,2-dimethyl-N-(naphthalene-1-sulfonyl)-3,4-dihydro-2H-1-benzopyran-4-carboxamide] | 3 to 10 | 50 to 150 | < 3 | +++ (≥350)
COc1ccc(Cl)c2c1C(C(=O)NS(=O)(=O)c1cccc3ccccc13)CC(C)(C)O2 (stereo not shown) [Example 51, 8-chloro-5-methoxy-2,2-dimethyl-N-(naphthalene-1-sulfonyl)-3,4-dihydro-2H-1-benzopyran-4-carboxamide] | < 3 | ≥ 150 | < 3 | +++ (≥350)
COc1ccc(Br)c2c1C(C(=O)NS(=O)(=O)c1cccc3ccccc13)CC(C)(C)O2 (stereo not shown) [Example 52, 8-bromo-5-methoxy-2,2-dimethyl-N-(naphthalene-1-sulfonyl)-3,4-dihydro-2H-1-benzopyran-4-carboxamide] | < 3 | ≥ 150 | < 3 | +++ (≥350)
COc1ccc(C(F)(F)F)c2c1C(C(=O)NS(=O)(=O)c1cccc3ccccc13)CCO2 (stereo not shown) [Example 53, 5-methoxy-N-(naphthalene-1-sulfonyl)-8-(trifluoromethyl)-3,4-dihydro-2H-1-benzopyran-4-carboxamide] | < 3 | ≥ 150 | < 3 | +++ (≥350)
COc1ccc(C2CCC2)c2c1C(C(=O)NS(=O)(=O)c1cccc3ncccc13)CCO2 (stereo not shown) [Example 54, 8-cyclobutyl-5-methoxy-N-(quinoline-5-sulfonyl)-3,4-dihydro-2H-1-benzopyran-4-carboxamide] | 3 to 10 | ≥ 150 | < 3 | +++ (≥350)
COc1ccc(C2CCC2)c2c1[C@@H](C(=O)NS(=O)(=O)c1cccc3ccccc13)CCO2 [Example 55, (4S)-8-cyclobutyl-5-methoxy-N-(naphthalene-1-sulfonyl)-3,4-dihydro-2H-1-benzopyran-4-carboxamide] | 3 to 10 | ≥ 150 | 3 to 10 | +++ (≥350)
COc1ccc(C2CCC2)c2c1[C@H](C(=O)NS(=O)(=O)c1cccc3ccccc13)CCO2 [Example 56, (4R)-8-cyclobutyl-5-methoxy-N-(naphthalene-1-sulfonyl)-3,4-dihydro-2H-1-benzopyran-4-carboxamide] | < 3 | ≥ 150 | < 3 | +++ (≥350)
COc1ccc(C(F)(F)F)c2c1[C@@H](C(=O)NS(=O)(=O)c1cccc3ccccc13)CCO2 [Example 57, (4S)-5-methoxy-N-(naphthalene-1-sulfonyl)-8-(trifluoromethyl)-3,4-dihydro-2H-1-benzopyran-4-carboxamide] | 3 to 10 | ≥ 150 | < 3 | +++ (≥350)
COc1ccc(C(F)(F)F)c2c1[C@H](C(=O)NS(=O)(=O)c1cccc3ccccc13)CCO2 [Example 58, (4R)-5-methoxy-N-(naphthalene-1-sulfonyl)-8-(trifluoromethyl)-3,4-dihydro-2H-1-benzopyran-4-carboxamide] | < 3 | ≥ 150 | < 3 | +++ (≥350)
COc1ccc(C2CCC2)c2c1[C@@H](C(=O)NS(=O)(=O)c1cccc3ncccc13)CCO2 [Example 59, (4S)-8-cyclobutyl-5-methoxy-N-(quinoline-5-sulfonyl)-3,4-dihydro-2H-1-benzopyran-4-carboxamide] | 3 to 10 | ≥ 150 | 3 to 10 | +++ (≥350)
COc1ccc(C2CCC2)c2c1[C@H](C(=O)NS(=O)(=O)c1cccc3ncccc13)CCO2 [Example 60, (4R)-8-cyclobutyl-5-methoxy-N-(quinoline-5-sulfonyl)-3,4-dihydro-2H-1-benzopyran-4-carboxamide] | < 3 | ≥ 150 | < 3 | +++ (≥350)
CCC1(C(=O)NS(=O)(=O)c2cccc3ccccc23)COc2c(C(F)(F)F)cccc21 (stereo not shown) [Example 61, 3-ethyl-N-(naphthalene-1-sulfonyl)-7-(trifluoromethyl)-2,3-dihydro-1-benzofuran-3-carboxamide] | 3 to 10 | ≥ 150 | 3 to 10 | +++ (≥350)
COc1ccc(OC)c2c1OCC2C(=O)NS(=O)(=O)c1cccc2ccccc12 (stereo not shown) [Example 62, 4,7-dimethoxy-N-(naphthalene-1-sulfonyl)-2,3-dihydro-1-benzofuran-3-carboxamide] | 3 to 10 | ≥ 150 | 3 to 10 | +++ (≥350)

The remaining lines, values ahead:

EC50 [1] [µM] | Emax [2] [%] | EC50 [3] [µM] | Maximum % activity (with co-corrector) | Compound
3 to 10 | ≥ 150 | < 3 | +++ (≥350) | COc1ccc(Cl)c2c1C(C(=O)NS(=O)(=O)c1cccc3ccccc13)CO2 (stereo not shown) [Example 63, 7-chloro-4-methoxy-N-(naphthalene-1-sulfonyl)-2,3-dihydro-1-benzofuran-3-carboxamide]
3 to 10 | ≥ 150 | < 3 | +++ (≥350) | COc1ccc(C2CC2)c2c1C(C(=O)NS(=O)(=O)c1cccc3ccccc13)CCO2 (stereo not shown) [Example 64, 8-cyclopropyl-5-methoxy-N-(naphthalene-1-sulfonyl)-3,4-dihydro-2H-1-benzopyran-4-carboxamide]
< 3 | ≥ 150 | < 3 | +++ (≥350) | COc1ccc(C2CCC2)c2c1[C@@H](C(=O)NS(=O)(=O)c1cccc3ccccc13)CO2 [Example 66, (3R)-7-cyclobutyl-4-methoxy-N-(naphthalene-1-sulfonyl)-2,3-dihydro-1-benzofuran-3-carboxamide]
3 to 10 | 50 to 150 | 3 to 10 | ++ (≥150 and <350) | COc1ccc(Br)c2c1[C@@H](C(=O)NS(=O)(=O)c1cccc3cnn(C)c13)CCO2 [Example 69, (4S)-8-bromo-5-methoxy-N-(1-methyl-1H-indazole-7-sulfonyl)-3,4-dihydro-2H-1-benzopyran-4-carboxamide]
< 3 | ≥ 150 | < 3 | +++ (≥350) | COc1ccc(Br)c2c1[C@H](C(=O)NS(=O)(=O)c1cccc3cnn(C)c13)CCO2 [Example 70, (4R)-8-bromo-5-methoxy-N-(1-methyl-1H-indazole-7-sulfonyl)-3,4-dihydro-2H-1-benzopyran-4-carboxamide]
3 to 10 | ≥ 150 | < 3 | +++ (≥350) | COc1ccc(Br)c2c1[C@@H](C(=O)NS(=O)(=O)c1cccc3ncccc13)CC(C)(C)O2 [Example 71, (4S)-8-bromo-5-methoxy-2,2-dimethyl-N-(quinoline-5-sulfonyl)-3,4-dihydro-2H-1-benzopyran-4-carboxamide]
< 3 | ≥ 150 | < 3 | +++ (≥350) | COc1ccc(Br)c2c1[C@H](C(=O)NS(=O)(=O)c1cccc3ncccc13)CC(C)(C)O2 [Example 72, (4R)-8-bromo-5-methoxy-2,2-dimethyl-N-(quinoline-5-sulfonyl)-3,4-dihydro-2H-1-benzopyran-4-carboxamide]
3 to 10 | ≥ 150 | 3 to 10 | +++ (≥350) | COc1ccc(C2CCC2)c2c1[C@@H](C(=O)NS(=O)(=O)c1cccc3nc(C)ccc13)CCO2 [Example 76, (4S)-8-cyclobutyl-5-methoxy-N-(2-methylquinoline-5-sulfonyl)-3,4-dihydro-2H-1-benzopyran-4-carboxamide]
3 to 10 | ≥ 150 | < 3 | +++ (≥350) | COc1ccc(C2CCC2)c2c1[C@H](C(=O)NS(=O)(=O)c1cccc3nc(C)ccc13)CCO2 [Example 77, (4R)-8-cyclobutyl-5-methoxy-N-(2-methylquinoline-5-sulfonyl)-3,4-dihydro-2H-1-benzopyran-4-carboxamide]
< 3 | ≥ 150 | < 3 | +++ (≥350) | COc1ccc(Br)c2c1C(C(=O)NS(=O)(=O)c1cccc3ccccc13)OCC2 (stereo not shown) [Example 78, 5-bromo-8-methoxy-N-(naphthalene-1-sulfonyl)-3,4-dihydro-1H-2-benzopyran-1-carboxamide]
3 to 10 | ≥ 150 | < 3 | +++ (≥350) | COc1ccc(C2CCC2)c2c1C(C(=O)NS(=O)(=O)c1cccc3ccccc13)OCC2 (stereo not shown) [Example 79, 5-cyclobutyl-8-methoxy-N-(naphthalene-1-sulfonyl)-3,4-dihydro-1H-2-benzopyran-1-carboxamide]
< 3 | ≥ 150 | < 3 | +++ (≥350) | COc1ccc(C2CCC2)c2c1C(C(=O)NS(=O)(=O)c1cccc3ncccc13)CO2 (stereo not shown) [Example 80, 7-cyclobutyl-4-methoxy-N-(quinoline-5-sulfonyl)-2,3-dihydro-1-benzofuran-3-carboxamide]
